Source: patent publication EP0315434A2, “Pyridoxal hydrazone derivatives their production and use and pharmaceutical compositions containing the same” (YISSUM RESEARCH DEVELOPMENT COMPANY OF THE HEBREW …, priority 1987, dated 1989)

Tests used:
[1] = test system: non-resistant strain of P. falciparum; conditions: molar concentration 1.5 x 10⁻⁵, according to Raventos-Suarez; cited from earlier work
[2] = stated as known; cited from earlier work
[3] = background statement, "probably"; cited from earlier work
[4] = Mobilization of iron from hepatic parenchymal stores in hypertransfused rats labelled with ⁵⁹Fe-ferritin; format: in vivo
Method: In each case, 40 mg of each compound was administered per animal in a single subcutaneous injection.
In vivo studies of chelating efficiency were performed in two models: (a) normal rats injected i.p. with 10 mg of either desferrioxamine B (DF), PIH of the prior art, PPH of Example 4 or PPHE from Example 5 labelled in vitro with ⁵⁹Fe; and (b) hypertransfused rats receiving twice 4 ml/100gm packed RBC intravenously 5 and 3 days prior to study (hematocrit 68%) and labelled with ⁵⁹Fe-ferritin injected i.v. 24h prior to iron chelating therapy as described previously. Drugs to be tested in the ⁵⁹Fe-ferritin model were given either by i.p. injection or by gastric tube at a dose of 40 mg per animal. Radioiron excretion and organ distribution were determined after 4 days
The radioactivity of spleen, weighed portions of the liver, and 1 ml samples of blood were determined in an automatic well type scintillation counter (Packard Autogamma Model 5360 Scintillation spectrometer). Spleen and kidney were counted as whole organs.
Whole body counts were performed in a small animal counter (Packard Model 446 Armac) scintillation detector. The excretion of radioiron following ⁵⁹Fe labelling was measured in animals confined to solitary metabolic cages with stainless steel grid bottoms, and stool and urine were collected separately.

[5] = Fate of ⁵⁹Fe tracer incubated with chelator and injected into normal rats (radioiron distribution and excretion); format: in vivo
Method: Table 1 describes the fate of ⁵⁹Fe tracer reincubated […] with 10 mg of some of the above iron chelators and then injected subcutaneously to groups of 4 normal rats. Numbers represent mean cumulative radioiron excretion within 4 days of injection. For comparison, spontaneous excretion of radioiron and the excretion of desferrioxamine (DF) bound radioiron are also given. […]
Spleen and kidney were counted as whole organs.
The excretion of radioiron following ⁵⁹Fe labelling was measured in animals confined to solitary metabolic cages with stainless steel grid bottoms, and stool and urine were collected separately.

[6] = hypertransfused rats, 40 mg per animal, after 4 days, Desferral i.p., route not printed for Ex. 4 and Ex. 5, mean ± SD
[7] = hypertransfused rats, 40 mg per animal, after 4 days, Desferral i.p., route not printed for Ex. 4 and Ex. 5, mean ± SD, listed as desferral
[8] = hypertransfused rats, 40 mg per animal, single subcutaneous injection
[9] = 10 mg chelator with ⁵⁹Fe, subcutaneous, normal rats, cumulative within 4 days
[10] = 10 mg chelator with ⁵⁹Fe, subcutaneous, normal rats, within 4 days

Compound: CC(=O)N(O)CCCCCNC(=O)CCC(=O)N(O)CCCCCNC(=O)CCC(=O)N(O)CCCCCN [Desferral, desferrioxamine, reference compound]
- INHIBITION OF GROWTH OF P. falciparum % INHIBITION [1]: complete after 96 Hrs. ^(*)
- oral efficiency [2]: no oral efficiency
- half life in vivo [3]: less than 1 hr
- reduction in hepatocellular (hepatic) radioactivity ([4]; 40 mg i.p., hypertransfused rats, 4 days): 20%
- ORGAN DISTRIBUTION AND EXCRETION OF ⁵⁹Fe-FERRITIN (%) BLOOD [4, 6]: 4.5±0.4%
- ORGAN DISTRIBUTION AND EXCRETION OF ⁵⁹Fe-FERRITIN (%) LIVER [4, 6]: 70.4± 6.0%
- ORGAN DISTRIBUTION AND EXCRETION OF ⁵⁹Fe-FERRITIN (%) STOOL [4, 6]: 23.3±0.1%
- ORGAN DISTRIBUTION AND EXCRETION OF ⁵⁹Fe-FERRITIN (%) TOTAL EXCRETION [4, 6]: 24.5±0.1%
- ORGAN DISTRIBUTION AND EXCRETION OF ⁵⁹Fe-FERRITIN (%) URINE ([4]; hypertransfused rats, 40 mg per animal, after 4 days, Desferral i.p., route not printed for Ex. 4 and Ex. 5, mean ± SD, listed as DESFERRAL): 1.2±0%
- ORGAN DISTRIBUTION AND EXCRETION OF ⁵⁹Fe-FERRITIN (%) STOOL [4, 7]: 23%
- ORGAN DISTRIBUTION AND EXCRETION OF ⁵⁹Fe-FERRITIN (%) URINE [4, 7]: negligible
- Ferritin-⁵⁹Fe distribution in % Blood [4, 8]: 4.5±0.4%
- Ferritin-⁵⁹Fe distribution in % Feces [4, 8]: 23.3±0.1%
- Ferritin-⁵⁹Fe distribution in % Liver [4, 8]: 70.4±6.0%
- Ferritin-⁵⁹Fe distribution in % Residual [4, 8]: 0%
- Ferritin-⁵⁹Fe distribution in % Spleen [4, 8]: 0.6±0.1%
- Ferritin-⁵⁹Fe distribution in % Urine [4, 8]: 1.2±0%
- total radioiron excretion ([4]; oral, 40 mg drug/animal by gastric tube, hypertransfused ⁵⁹Fe-ferritin labelled rats): 6.0%
- Radioiron Distribution in % Feces [5, 9]: 13.5±0.7%
- Radioiron Distribution in % Total excretion [5, 9]: 85.4±4.3%
- Radioiron Distribution in % Urine [5, 9]: 71.9±3.6%
- Radioiron Distribution in % Blood [5, 10]: 8.7±1.6%
- Radioiron Distribution in % Liver [5, 10]: 2.7±0.3%
- Radioiron Distribution in % Spleen [5, 10]: 0.14±0.03%
- TOTAL EXCRETION OF RADIO-IRON IN RATS % ([5]; as in Table 1): 85.4± 4.3%
